Measurements from patent publication US20210045385A1, “PYRIDAZINONE-SUBSTITUTED KETOXIMES AS HERBICIDES” (FMC Corporation, priority 2018, published 2021).

Assays:
Assay type in all cases: in vivo
[1] = test system: Italian ryegrass (Lolium mutiflorum); assay: Test C preemergence, visual plant response rating; settings: Test C, 0 is no effect, 100 is complete control
In short: (§1)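 Seeds sown in a loam–sand blend got a directed preemergence soil spray; postemergence plants (2–10 cm, one- to two-leaf stage) were sprayed with compound in a non-phytotoxic solvent plus surfactant. Injury was scored visually against untreated controls after about 10 d in a greenhouse on a 0–100 scale (100 = complete control).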

[2] = test system: barnyardgrass (Echinochloa crus-galli); assay: Test C preemergence, visual plant response rating; settings: Test C, 0 is no effect, 100 is complete control
In short: as §1

[3] = test system: foxtail, giant (giant foxtail, Setaria faberi); assay: Test C preemergence, visual plant response rating; settings: Test C, 0 is no effect, 100 is complete control
In short: as §1

[4] = test system: kochia (Bassia scoparia); assay: Test C preemergence, visual plant response rating; settings: Test C, 0 is no effect, 100 is complete control
In short: as §1

[5] = test system: pigweed (Amaranthus retroflexus); assay: Test C preemergence, visual plant response rating; settings: Test C, 0 is no effect, 100 is complete control
In short: as §1

[6] = test system: ragweed (common ragweed, Ambrosia artemisiifolia); assay: Test C preemergence, visual plant response rating; settings: Test C, 0 is no effect, 100 is complete control
In short: as §1

[7] = test system: Italian ryegrass (Lolium mutiflorum); assay: Test C postemergence, visual plant response rating
In short: as §1

[8] = test system: barnyardgrass (Echinochloa crus-galli); assay: Test C postemergence, visual plant response rating
In short: as §1

[9] = test system: blackgrass (Alopecurus myosuroides); assay: Test C postemergence, visual plant response rating
In short: as §1

[10] = test system: corn (Zea mays); assay: Test C postemergence, visual plant response rating
In short: as §1

[11] = test system: foxtail, giant (giant foxtail, Setaria faberi); assay: Test C postemergence, visual plant response rating
In short: as §1

[12] = test system: galium (catchweed bedstraw, Galium aparine); assay: Test C postemergence, visual plant response rating
In short: as §1

[13] = test system: kochia (Bassia scoparia); assay: Test C postemergence, visual plant response rating
In short: as §1

[14] = test system: pigweed (Amaranthus retroflexus); assay: Test C postemergence, visual plant response rating
In short: as §1

[15] = test system: ragweed (common ragweed, Ambrosia artemisiifolia); assay: Test C postemergence, visual plant response rating
In short: as §1

[16] = test system: wheat (Triticum aestivum); assay: Test C postemergence, visual plant response rating
In short: as §1

[17] = test system: barnyardgrass (Echinochloa crus-galli); assay: Test D flooded paddy test, visual plant response rating; settings: 250 g ai/ha, scale 0 to 100 (0 no effect, 100 complete control), 13 to 15 d
In short: (§2)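 Plants grown to the 2-leaf stage; pots flooded to 3 cm above soil and compound applied directly into paddy water, depth held throughout. Kept in greenhouse 13 to 15 d, then rated visually against untreated controls on a 0–100 scale (0 no effect, 100 complete control).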

[18] = test system: duck salad (Heteranthera limosa); assay: as above; settings: 250 g ai/ha, scale 0 to 100 (0 no effect, 100 complete control), 13 to 15 d
In short: as §2

[19] = test system: rice (Oryza sativa); assay: as above; settings: 250 g ai/ha, scale 0 to 100 (0 no effect, 100 complete control), 13 to 15 d
In short: as §2

[20] = test system: sedge umbrella (small-flower umbrella sedge, Cyperus difformis); assay: as above; settings: 250 g ai/ha, scale 0 to 100 (0 no effect, 100 complete control), 13 to 15 d
In short: as §2

[21] = Test C, postemergence, 125 g ai/ha

Structure (SMILES)	Ryegrass, Italian plant response rating (0 to 100 scale) ([1]; 31 g ai/ha)	Ryegrass, Italian plant response rating (0 to 100 scale) ([1]; 125 g ai/ha)	Barnyardgrass plant response rating (0 to 100 scale) ([2]; 31 g ai/ha)	Barnyardgrass plant response rating (0 to 100 scale) ([2]; 125 g ai/ha)	Foxtail, Giant plant response rating (0 to 100 scale) ([3]; 31 g ai/ha)	Foxtail, Giant plant response rating (0 to 100 scale) ([3]; 125 g ai/ha)	Kochia plant response rating (0 to 100 scale) ([4]; 31 g ai/ha)	Kochia plant response rating (0 to 100 scale) ([4]; 125 g ai/ha)	Pigweed plant response rating (0 to 100 scale) ([5]; 31 g ai/ha)	Pigweed plant response rating (0 to 100 scale) ([5]; 125 g ai/ha)	Ragweed plant response rating (0 to 100 scale) ([6]; 31 g ai/ha)	Ragweed plant response rating (0 to 100 scale) ([6]; 125 g ai/ha)	Ryegrass, Italian plant response rating (0 to 100 scale) ([7]; Postemergence, 31 g ai/ha)	Ryegrass, Italian plant response rating (0 to 100 scale) [7, 21]	Barnyardgrass plant response rating (0 to 100 scale) ([8]; Postemergence, 31 g ai/ha)	Barnyardgrass plant response rating (0 to 100 scale) [8, 21]	Blackgrass plant response rating (0 to 100 scale) ([9]; Postemergence, 31 g ai/ha)	Blackgrass plant response rating (0 to 100 scale) [9, 21]	Corn plant response rating (0 to 100 scale) ([10]; Postemergence, 31 g ai/ha)	Corn plant response rating (0 to 100 scale) [10, 21]	further results
CO/N=C(\c1ccc(Cl)c(Cl)c1)c1c(O)c(C)nn(C)c1=O [Compound 217]	0	0	0	0	0	0	0	20	0	0	0	0	0	0	0	20	0	0	0	0	Foxtail, Giant plant response rating (0 to 100 scale) ([11]; Postemergence, 31 g ai/ha): 0; Foxtail, Giant plant response rating (0 to 100 scale) [11, 21]: 0; Galium plant response rating (0 to 100 scale) ([12]; Postemergence, 31 g ai/ha): 40; Galium plant response rating (0 to 100 scale) [12, 21]: 80; Kochia plant response rating (0 to 100 scale) ([13]; Postemergence, 31 g ai/ha): 30; Kochia plant response rating (0 to 100 scale) [13, 21]: 60; Pigweed plant response rating (0 to 100 scale) ([14]; Postemergence, 31 g ai/ha): 10; Pigweed plant response rating (0 to 100 scale) [14, 21]: 20; Ragweed plant response rating (0 to 100 scale) ([15]; Postemergence, 31 g ai/ha): 0; Ragweed plant response rating (0 to 100 scale) [15, 21]: 20; Wheat plant response rating (0 to 100 scale) ([16]; Postemergence, 31 g ai/ha): 0; Wheat plant response rating (0 to 100 scale) [16, 21]: 0; Plant response rating, Barnyardgrass (Flood) [17]: 0; Plant response rating, Ducksalad (Flood) [18]: 0; Plant response rating, Rice (Flood) [19]: 0; Plant response rating, Sedge, Umbrella (Flood) [20]: 0
CO/N=C(\c1cccc(Br)c1)c1c(O)c(C)nn(C)c1=O [Compound 239]	10	50	0	0	0	10	0	10	0	10	10	50	50	60	10	30	0	0	0	0	Foxtail, Giant plant response rating (0 to 100 scale) ([11]; Postemergence, 31 g ai/ha): 0; Foxtail, Giant plant response rating (0 to 100 scale) [11, 21]: 20; Galium plant response rating (0 to 100 scale) ([12]; Postemergence, 31 g ai/ha): 70; Galium plant response rating (0 to 100 scale) [12, 21]: 90; Kochia plant response rating (0 to 100 scale) ([13]; Postemergence, 31 g ai/ha): 40; Kochia plant response rating (0 to 100 scale) [13, 21]: 60; Pigweed plant response rating (0 to 100 scale) ([14]; Postemergence, 31 g ai/ha): 20; Pigweed plant response rating (0 to 100 scale) [14, 21]: 60; Ragweed plant response rating (0 to 100 scale) ([15]; Postemergence, 31 g ai/ha): 50; Ragweed plant response rating (0 to 100 scale) [15, 21]: 70; Wheat plant response rating (0 to 100 scale) ([16]; Postemergence, 31 g ai/ha): 0; Wheat plant response rating (0 to 100 scale) [16, 21]: 0; Plant response rating, Barnyardgrass (Flood) [17]: 0; Plant response rating, Ducksalad (Flood) [18]: 0; Plant response rating, Rice (Flood) [19]: 0; Plant response rating, Sedge, Umbrella (Flood) [20]: 0
C=CCO/N=C(\c1c(O)c(C)nn(C)c1=O)c1cccc2cc(Cl)ccc12 [Compound 243]	0	20	20	80	80	100	0	0	70	100	30	80	10	40	70	80	30	50	0	30	Foxtail, Giant plant response rating (0 to 100 scale) ([11]; Postemergence, 31 g ai/ha): 70; Foxtail, Giant plant response rating (0 to 100 scale) [11, 21]: 80; Galium plant response rating (0 to 100 scale) ([12]; Postemergence, 31 g ai/ha): 80; Galium plant response rating (0 to 100 scale) [12, 21]: 90; Kochia plant response rating (0 to 100 scale) ([13]; Postemergence, 31 g ai/ha): 20; Kochia plant response rating (0 to 100 scale) [13, 21]: 20; Pigweed plant response rating (0 to 100 scale) ([14]; Postemergence, 31 g ai/ha): 80; Pigweed plant response rating (0 to 100 scale) [14, 21]: 90; Ragweed plant response rating (0 to 100 scale) ([15]; Postemergence, 31 g ai/ha): 60; Ragweed plant response rating (0 to 100 scale) [15, 21]: 90; Wheat plant response rating (0 to 100 scale) ([16]; Postemergence, 31 g ai/ha): 0; Wheat plant response rating (0 to 100 scale) [16, 21]: 0; Plant response rating, Barnyardgrass (Flood) [17]: 40; Plant response rating, Ducksalad (Flood) [18]: 80; Plant response rating, Rice (Flood) [19]: 45; Plant response rating, Sedge, Umbrella (Flood) [20]: 100
